Inhibition and IC50 data for 21 molecules are collected here from US12637425B2, “Compounds and formulations for treating ophthalmic diseases” (Visus Therapeutics, Inc., priority 2020, dated 2026).

Where only a bound is given, the exact number is not on record here.

For this assay, the target named is T1, Recombinant cryAB(R120G) protein (Homo sapiens, UniProt P02511, R120G).
T1 sequence (P02511 1-175 R120G): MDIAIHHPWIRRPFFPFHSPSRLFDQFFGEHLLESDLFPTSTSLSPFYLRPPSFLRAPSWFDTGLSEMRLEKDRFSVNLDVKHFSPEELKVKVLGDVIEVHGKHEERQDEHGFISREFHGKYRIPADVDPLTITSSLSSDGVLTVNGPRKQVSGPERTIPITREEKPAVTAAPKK
Kind of assay: Kinetic turbidity aggregation assay of recombinant cryAB(R120G). The format is biochemical. The settings on record: for inhibition at 25 µM: 25 μM compound, read-out: % Inhibition of Protein Aggregation, 25 μM cmpd; for inhibition at 25 µM / inhibition at 100 µM / inhibition at 400 µM: 15 μM cryAB(R120G), 42° C., absorbance at 550 nm; for inhibition at 100 µM: 100 μM compound, read-out: % Inhibition of Protein Aggregation, 100 μM cmpd; for IC50: inhibition of cryAB(R120G) protein aggregation; for inhibition at 400 µM: 400 μM compound, read-out: % Inhibition of Protein Aggregation, 400 μM cmpd. The procedure:
Example A-1: Kinetic Turbidity Aggregation Assay of Recombinant cryAB(R120)
Recombinant cryAB(R120G) protein was diluted to 100 μM in assay buffer (50 mM Tris, 100 mM NaCl, 5 mM DTT, 0.01% Triton X-100, 0.05% PEG-8000). Compounds were dissolved in DMSO at 10 mM then typically diluted to 2.5 mM in DMSO and serially diluted 2-fold as necessary. To a 384-well black microplate in quadruplicate was added 81 μL assay buffer, followed by 15 μL protein solution, and 4 μL compound to give a final concentration of 15 μM cryAB(R120G) protein in 4% DMSO. […] N.D. is not determined.

Usually inhibition stands for the change of the read-out against control, counted positive when it falls. On to `Cn1cc([C@@H](CNS(=O)(=O)c2ccc3cc[nH]c3c2)N2CC[C@@H](c3ccccc3)C2)c2ccccc21` [Compound 58, N-((S)-2-(1-methyl-1H-indol-3-yl)-2-((S)-3-phenylpyrrolidin-1-yl)ethyl)-1H-indole-6-sulfonamide], for which the inhibition at 25 µM was -8% and the inhibition at 100 µM is 66.7%.
What is called IC50 is the concentration at which inhibition is half-maximal. With `Cn1cc(C(CNS(=O)(=O)c2ccc3cc[nH]c3c2)N2CCCCC2)c2ccccc21` (stereo not shown) [Compound 29, N-(2-(1-methyl-1H-indol-3-yl)-2-(piperidin-1-yl)ethyl)-1H-indole-6-sulfonamide], the inhibition at 25 µM is 69%, the inhibition at 100 µM amounted to 99.9% and the IC50 was 10 to 50 µM.
Consider `Cn1ccc2ccc(S(=O)(=O)NCC(c3cn(C)c4ccccc34)N3CCCC3)cc21` (stereo not shown) [Compound 33, 1-methyl-N-(2-(1-methyl-1H-indol-3-yl)-2-(pyrrolidin-1-yl)ethyl)-1H-indole-6-sulfonamide], for which the inhibition at 25 µM worked out at 27% and the inhibition at 100 µM was 82.8%.
For `C[C@H]1CCCN1C(CNS(=O)(=O)c1ccc2cc[nH]c2c1)c1cn(C)c2ccccc12` (stereo partly shown) [Compound 48], the inhibition at 25 µM came out at 23% and the inhibition at 100 µM worked out at 76.9%.
Turning to `Cn1cc([C@@H](CNS(=O)(=O)c2ccc3cc[nH]c3c2)NCc2cncs2)c2ccccc21` [Compound 84, (S)-N-(2-(1-methyl-1H-indol-3-yl)-2-((thiazol-5-ylmethyl)amino)ethyl)-1H-indole-6-sulfonamide], the inhibition at 25 µM was 25% and the inhibition at 100 µM came to 71.8%.
The matching figures for `COC1CCN(C(CNS(=O)(=O)c2ccc3cc[nH]c3c2)c2cn(C)c3ccccc23)CC1` (stereo not shown) [Compound 47, N-(2-(4-methoxypiperidin-1-yl)-2-(1-methyl-1H-indol-3-yl)ethyl)-1H-indole-6-sulfonamide]: 32% and 86.9%.
The corresponding values for `Cn1cc(C(CNS(=O)(=O)c2ccc3cc[nH]c3c2)N2CCN(CCO)CC2)c2ccccc21` (stereo not shown) [Compound 46, N-(2-(4-(2-hydroxyethyl)piperazin-1-yl)-2-(1-methyl-1H-indol-3-yl)ethyl)-1H-indole-6-sulfonamide] are -4% and 63.1%.
Take `CC(C)n1cc(C(CNS(=O)(=O)c2cccc3cc[nH]c23)N(C)C)c2ccccc21` (stereo not shown) [Compound 14, N-(2-(dimethylamino)-2-(1-isopropyl-1H-indol-3-yl)ethyl)-1H-indole-7-sulfonamide]: the inhibition at 25 µM is 11%, the inhibition at 100 µM is 74.9% and the inhibition at 400 µM came out at 81%.
In the case of `COc1ccc2c(c1)c(C(CNS(=O)(=O)c1ccc3cc[nH]c3c1)N(C)C)cn2C` (stereo not shown) [Compound 18, N-(2-(dimethylamino)-2-(5-methoxy-1-methyl-1H-indol-3-yl)ethyl)-1H-indole-6-sulfonamide], the inhibition at 25 µM is 68%, the inhibition at 100 µM came to 52.3%, the inhibition at 400 µM was 98.5% and the IC50 was 10 to 50 µM.
Regarding `CC(C)n1cc(C(CNS(=O)(=O)c2cccc3[nH]ccc23)N(C)C)c2ccccc21` (stereo not shown) [Compound 13, N-(2-(dimethylamino)-2-(1-isopropyl-1H-indol-3-yl)ethyl)-1H-indole-4-sulfonamide], the inhibition at 25 µM was -6%, the inhibition at 100 µM came to 32.7% and the inhibition at 400 µM turned out to be 94.7%.
For `CNC(CNS(=O)(=O)c1ccc2cc[nH]c2c1)c1cn(C)c2ccccc12` (stereo not shown) [Compound 88, N-(2-(1-methyl-1H-indol-3-yl)-2-(methylamino)ethyl)-1H-indole-6-sulfonamide], the inhibition at 25 µM worked out at 21% and the inhibition at 100 µM was 94.3%.
Take `CN(C)C(CNS(=O)(=O)c1ccc2cc[nH]c2c1)c1nn(C)c2ccccc12` (stereo not shown) [Compound 19, N-(2-(dimethylamino)-2-(1-methyl-1H-indazol-3-yl)ethyl)-1H-indole-6-sulfonamide]: the inhibition at 25 µM is 34%, the inhibition at 100 µM worked out at 81.5%, the inhibition at 400 µM amounted to 99.9% and the IC50 lay in the range of 10 to 50 µM.
In the case of `CN(C)C(CNS(=O)(=O)c1ccc2cc[nH]c2c1)c1cccc2cccnc12` (stereo not shown) [Compound 57, N-(2-(dimethylamino)-2-(quinolin-8-yl)ethyl)-1H-indole-6-sulfonamide], the inhibition at 25 µM is 25% and the inhibition at 100 µM came out at 82.4%.
For `Cn1cc(C(CNS(=O)(=O)c2ccc3cc[nH]c3c2)N2CC[C@@H](O)C2)c2ccccc21` (stereo partly drawn) [Compound 44, N-(2-((R)-3-hydroxypyrrolidin-1-yl)-2-(1-methyl-1H-indol-3-yl)ethyl)-1H-indole-6-sulfonamide], the inhibition at 25 µM worked out at 82%, the inhibition at 100 µM amounted to 99.7% and the half-inhibitory concentration (IC50) is no more than 10 µM.
In the case of `COc1cc2cc[nH]c2cc1S(=O)(=O)NCC(c1cn(C)c2ccccc12)N(C)C` (stereo not shown) [Compound 96, N-(2-(dimethylamino)-2-(1-methyl-1H-indol-3-yl)ethyl)-5-methoxy-1H-indole-6-sulfonamide], the inhibition at 25 µM was 60% and the inhibition at 100 µM came to 58.8%.
Regarding `CN(C)C(CNS(=O)(=O)c1ccc2cn[nH]c2c1)c1cn(C)c2ccccc12` (stereo not shown) [Compound 7, N-(2-(dimethylamino)-2-(1-methyl-1H-indol-3-yl)ethyl)-1H-indazole-6-sulfonamide], the inhibition at 25 µM is -21%, the inhibition at 100 µM is -32% and the inhibition at 400 µM amounted to 56.6%.
As to `Cn1cc(C(CNS(=O)(=O)c2ccc3cc[nH]c3c2)N2CCC(O)CC2)c2ccccc21` (stereo not shown) [Compound 40, N-(2-(4-hydroxypiperidin-1-yl)-2-(1-methyl-1H-indol-3-yl)ethyl)-1H-indole-6-sulfonamide], the inhibition at 25 µM came out at 16% and the inhibition at 100 µM was 79.7%.
`Cn1cc([C@@H](CNS(=O)(=O)c2ccc3cc[nH]c3c2)N2CCCC2)c2cnccc21` [Compound 80, (S)-N-(2-(1-methyl-1H-pyrrolo[3,2-c]pyridin-3-yl)-2-(pyrrolidin-1-yl)ethyl)-1H-indole-6-sulfonamide]: the inhibition at 25 µM is -28% and the inhibition at 100 µM worked out at 95.1%.
Consider `Cn1nc([C@@H](CNS(=O)(=O)c2ccc3cc[nH]c3c2)N2CCCC2)c2ccccc21` [Compound 89, (R)-N-(2-(1-methyl-1H-indazol-3-yl)-2-(pyrrolidin-1-yl)ethyl)-1H-indole-6-sulfonamide], for which the inhibition at 25 µM was found to be 98.4%, the inhibition at 100 µM stood at 99.7% and the IC50 is no more than 10 µM.
For the molecule `CCn1nc([C@@H](CNS(=O)(=O)c2ccc3cc[nH]c3c2)N2CCC2)c2ccccc21` [Compound 94, (R)-N-(2-(azetidin-1-yl)-2-(1-ethyl-1H-indazol-3-yl)ethyl)-1H-indole-6-sulfonamide], the inhibition at 25 µM was 97.7% and the inhibition at 100 µM amounted to 99.1%.
For the molecule `CO[C@@H]1CCN([C@H](CNS(=O)(=O)c2ccc3cc[nH]c3c2)c2cn(C)c3ccccc23)C1` [Compound 74, N-((S)-2-((R)-3-methoxypyrrolidin-1-yl)-2-(1-methyl-1H-indol-3-yl)ethyl)-1H-indole-6-sulfonamide], the inhibition at 25 µM was found to be 40% and the inhibition at 100 µM came to 99.9%.
